“And” between values parts separate entries of the source, which are not always exact repeats. Identical values can stand only once.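 Interpolation was linear, between the two tested concentrations surrounding the appropriate level; five concentrations were tested over 48 hours in 96-well plates. GI50 = concentration required for 50% inhibition of growth. TGI: concentration producing complete growth inhibition.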

As a reminder, the GI50 is the concentration at which growth is held to half of that of the control. One may read the TGI as the concentration at which net growth stops.

The assay has as its system MDA-MB-468 breast. Nature of the assay: DTP human tumour cell line panel, 48 h.

In the case of `COc1ccc(C(=O)Nc2cccc(C3CC(=O)c4c(cc(OC)c(OC)c4OC)O3)c2)cc1` (configuration not stated), the GI50 was 940 nM and the total growth inhibition concentration (TGI) is more than 100 µM.

Take `Cn1c(=O)c(F)c(Nc2ccc(I)cc2F)c2c(=O)n(C[C@@H](O)CO)cnc21`: the GI50 was 1800 nM and 590 nM; the concentration for total growth inhibition (TGI) was 8.66 µM and > 2.09 µM.

Take `Oc1ccc2ccccc2c1/C=N\Nc1ccccn1`: the GI50 is 1590 nM and the TGI was 4.87 µM.

Consider `CC(C)(C)CC(C)(C)Cc1ccc(OCCOCC[N+](C)(C)Cc2ccccc2)cc1`, for which the concentration for 50% growth inhibition (GI50) is 235 nM and the total growth inhibition concentration (TGI) was determined as 1.2 µM.

As to `COc1ccc(-n2c(N)c(C(=O)NCCN3CCOCC3)c3nc4ccccc4nc32)cc1OC`, the GI50 is 17900 nM and the concentration for total growth inhibition (TGI) was more than 100 µM.

In the case of `O=[N+]([O-])c1ccc2[nH]cc(-c3c4ccccc4cc4[nH]c5ccc([N+](=O)[O-])cc5c34)c2c1`, the GI50 was 2500 nM and the concentration for total growth inhibition (TGI) turned out to be 7.71 µM.

With `COc1ccc(/C=C(/C(=O)N2CCNCC2)c2cc(OC)c(OC)c(OC)c2)cc1O`, the GI50 is 2270 nM and the TGI worked out at 9.71 µM.

Consider `COc1cccc2c1C(=O)c1c(O)c3c(c(O)c1C2=O)C[C@@](O)(C(C)=O)C[C@@H]3OC1CC(N)C(O)C(C)O1` (some centres not stated), for which the GI50 is 62.3 nM and the TGI stood at 0.313 µM.

Regarding `Cn1c2ccccc2c2c3c(c4c5ccccc5n(CCCCCC#N)c4c21)C(=O)N(O)C3=O`, the GI50 was 683 nM and the TGI was determined as 6.12 µM.

For `COc1ccc(/C=N/NC2=NC3C(S2)N(C)C(=O)N3C)cc1` (configuration not stated), the GI50 is 1950 nM and the TGI was determined as 5.35 µM.

Regarding `CS(=O)(=O)c1nccc(-c2c(-c3cccc(OCc4ccc(Cl)c(C(F)(F)F)c4)c3)nc3sccn23)n1`, the GI50 was 859 nM and the TGI was determined as 1.66 µM.

In the case of `Cn1c(=O)c(Cc2ccc(F)cc2F)cc2cnc(NC3CCOCC3)nc21`, the GI50 was 19600 nM and the TGI was more than 25 µM.

`COC(=O)c1ccc2c(c1)nc(-c1ccc(Cl)cc1)n2-c1cc(C(C)(C)C)[nH]n1`: the GI50 is 2400 nM and the TGI was found to be 7.98 µM.

In the case of `COc1ccc(C2CC(c3cc(OC)c(OC)c(OC)c3)=NN2)cc1` (configuration not stated), the GI50 was 4350 nM and the TGI came to 64.5 µM.

As for `Nc1nc(Cl)nc2c1ncn2C1O[C@H](CO)[C@@H](O)[C@@H]1F` (some centres not stated), the concentration for 50% growth inhibition (GI50) is 387 nM and the TGI came out at 21.8 µM.

On to `CCCCOC(=O)N[C@H]1CCc2cc(OC)c(OC)c(OC)c2-c2ccc(SC)c(=O)cc21`, for which the GI50 is less than 10 nM and the TGI amounted to 19.4 µM.

In the case of `COc1cc(-c2ccc(-c3ccc(C(=N)N)s3)s2)cc(OC)c1OC`, the GI50 was 1820 nM and the concentration for total growth inhibition (TGI) amounted to 3.7 µM.

`CCN1C(=O)N(c2c(F)c(OC)cc(OC)c2F)Cc2cnc3[nH]c(CN4CCOCC4)cc3c21`: the GI50 is 2290 nM and the total growth inhibition concentration (TGI) was 55.9 µM.

Take `C=C1C(=O)O[C@H]2[C@H]1CC/C(COC(=O)CCC(=O)OC/C1=C/CC[C@@]3(C)O[C@H]3[C@H]3OC(=O)C(=C)[C@@H]3CC1)=C\CC[C@@]1(C)O[C@@H]21`: the GI50 is 1560 nM and the total growth inhibition concentration (TGI) stood at 4.83 µM.

Turning to `Nc1nc(N)c2c(n1)NC(c1ccccc1)CC(c1ccc(Nc3nc(NCCO)nc(Nc4ccc(Cl)cc4)n3)cc1)=N2` (configuration not stated), the GI50 was 1510 nM and the TGI is 2.99 µM.

For the molecule `Cc1ccc2c(n1)C(=O)C(Cl)=C(Nc1ccc(C(C)C)cc1)C2=O`, the GI50 was 512 nM and the concentration for total growth inhibition (TGI) came to 1.85 µM.

As to `O=C(CCN1CCCC1)Nc1ccc2c(NCCCCc3ccccc3)c3ccccc3nc2c1`, the GI50 is 811 nM and the TGI was found to be 2.12 µM.

For `CSC(=S)N/N=C(\C)c1ccccn1`, the GI50 was 68.5 nM and the concentration for total growth inhibition (TGI) came out at 1.21 µM.

With `O=C1NC(=NCCc2ccccc2Cl)S/C1=C\c1ccc2ncccc2c1`, the GI50 is 2170 nM and the TGI is more than 18.3 µM.

Turning to `O=C1NC(=NCc2ccccn2)S/C1=C\c1ccc2ncccc2c1`, the GI50 was 5970 nM and the TGI was more than 25 µM.

For the molecule `C[n+]1c2ccccc2c(NC2CCNCC2)c2[nH]c3ccccc3c21`, the GI50 is 200 nM and the concentration for total growth inhibition (TGI) is 1.26 µM.

In the case of `CCCCCCCCSC1=CC(=O)C(OC)=C(OC)C1=O`, the GI50 is 1430 nM and the total growth inhibition concentration (TGI) was determined as 2.97 µM.

As to `CN1CCC(n2cc(Nc3ncc4c(=O)n(-c5c(Cl)cccc5Cl)cc(Br)c4n3)cn2)CC1`, the GI50 is 937 nM and the concentration for total growth inhibition (TGI) came to 7.27 µM.

In the case of `C=C1C(=O)O[C@H]2[C@H]1CC/C(Cn1cc(CCC)nn1)=C\CC[C@@]1(C)O[C@@H]21`, the GI50 was 3650 nM and the TGI came out at 14.9 µM.

Regarding `C=C1C(=O)O[C@@H]2/C=C(/C)C3=CC(=O)[C@@](C)(C[C@H](OC(=O)/C(C)=C\C)[C@@H]12)O3`, the GI50 is 1140 nM and the TGI was found to be 5.03 µM.

Consider `CCOc1ccc2c(c1)/C(=C\C=C\C1CC(C)C3CC(OCC)CCC3N1CC)CC(C)N2CC` (configuration not stated), for which the concentration for 50% growth inhibition (GI50) is 280 nM and the TGI was 1.11 µM.

Consider `Cc1ccc(/C=C(\C#N)n2nnc3cc(F)c(F)cc32)cc1`, for which the GI50 was 10300 nM and the TGI was found to be 44.4 µM.

As for `NC(=O)NC(=O)CI`, the GI50 is 2480 nM and the concentration for total growth inhibition (TGI) was found to be 7.73 µM.

`CNCCNc1nc2ccccc2c2c(=O)c3cccc(OC)c3sc12`: the GI50 was 1450 nM and the total growth inhibition concentration (TGI) came to 3.06 µM.

`Cc1ccc(/C=C2\CCOC2=O)cc1`: the GI50 was more than 100000 nM and the TGI is more than 100 µM.

`Cc1nc2cc(O)c(O)cc2cc1Oc1ccc(NC(=O)Nc2ccc(Cl)c(Cl)c2)cc1`: the GI50 was 6990 nM and the concentration for total growth inhibition (TGI) is 17.4 µM.

Turning to `CN(C)CCn1cc(-c2ccc3c(Nc4ccc(CC(=O)Nc5cccc(F)c5)cc4)ncnc3c2)cn1`, the GI50 was 1260 nM and the concentration for total growth inhibition (TGI) came to 2.85 µM.

Consider `COC(=O)c1c(-c2ccccc2)csc1NC(=O)c1c(-c2ccccc2)noc1C`, for which the GI50 is 3200 nM and the TGI is more than 100 µM.

`Cc1ccccc1NC(=O)NC(CC(N)=O)c1ccc2c(c1)nc(-c1cccc(Oc3ccc(C(C)(C)C)cc3)c1)n2CCCN1CCCCC1C` (configuration not stated): the GI50 was 1780 nM and the concentration for total growth inhibition (TGI) came out at 3.28 µM.

For the molecule `Fc1ccc(Nc2nc(Nc3ccc(-c4nc5ccccc5[nH]4)cc3)nc(N3CCCC3)n2)cc1`, the GI50 was 2750 nM and the TGI was 6.74 µM.

For `COc1ccccc1Nc1nc(-c2cc3cccc(C(F)(F)F)c3oc2=O)cs1`, the GI50 is 97 nM and the TGI was determined as 0.71 µM.

Values taken from PubChem BioAssay (NCI).
